Several values for one entry are separate records, joined by “and”; a condition that tells them apart may be missing. Equal values may be shown once.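 Cells were grown in 96-well plates and exposed to each compound for 48 hours at five concentrations; endpoints were interpolated linearly between bracketing concentrations, or set to the highest concentration if not reached. GI50 = concentration required for 50% inhibition of growth.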 Activity calls are given as the source filed them. Cut-off read from the data, not from the text of the source: active = GI50 up to about 1.1 µM and inactive = higher.
What was measured:
Assay in all cases: NCI tumour cell line growth inhibition, 48 h
NCI-H23 = test system: NCI-H23
NCI-H226 = test system: NCI-H226
MDA-MB-435 = test system: MDA-MB-435
HCC 2998 = test system: HCC 2998
NCI-H522 = test system: NCI-H522
PC-3 = test system: PC-3
UO-31 = test system: UO-31
HOP-92 = test system: HOP-92
786-0 = test system: 786-0
IGROV-1 = test system: IGROV-1
HT-29 = test system: HT-29
M14 = test system: M14
LOX IMVI = test system: LOX IMVI
RXF 393 = test system: RXF 393
HOP-62 = test system: HOP-62
KM12 = test system: KM12
MOLT-4 = test system: MOLT-4
SF-268 = test system: SF-268
DU-145 = test system: DU-145
SN12C = test system: SN12C
OVCAR-4 = test system: OVCAR-4
Hs-578T = test system: Hs-578T
U-251 = test system: U-251
T47D = test system: T47D
A549 = test system: A549
HCT-116 = test system: HCT-116
MCF7 = test system: MCF7
K562 = test system: K562
SK-MEL-5 = test system: SK-MEL-5
RPMI-8226 = test system: RPMI-8226
SF-295 = test system: SF-295
UACC-257 = test system: UACC-257
SK-MEL-2 = test system: SK-MEL-2
OVCAR-8 = test system: OVCAR-8
SNB-19 = test system: SNB-19
SW-620 = test system: SW-620
EKVX = test system: EKVX
UACC-62 = test system: UACC-62
OVCAR-5 = test system: OVCAR-5
CAKI-1 = test system: CAKI-1
SK-OV-3 = test system: SK-OV-3
MDA-MB-231 = test system: MDA-MB-231
Malme-3M = test system: Malme-3M
ACHN = test system: ACHN
OVCAR-3 = test system: OVCAR-3
SF-539 = test system: SF-539
NCI-H460 = test system: NCI-H460
SK-MEL-28 = test system: SK-MEL-28
TK-10 = test system: TK-10
COLO 205 = test system: COLO 205
CCRF-CEM = test system: CCRF-CEM
HCT-15 = test system: HCT-15
A498 = test system: A498
SR = test system: SR
MDA-N = test system: MDA-N
BT-549 = test system: BT-549
HL-60 = test system: HL-60
NCI/ADR-RES = test system: NCI/ADR-RES
SNB-75 = test system: SNB-75

With `NC(Cc1ccc(N(CCCl)CCCl)cc1)C(=O)NC(CCC(=O)O)C(=O)O` (centres undefined) the GI50 (NCI-H23) was > 100 µM (inactive), the GI50 (NCI-H226) was > 100 µM (inactive) and the GI50 (MDA-MB-435) was > 100 µM (inactive). For the same compound, the GI50 (HCC 2998) was > 100 µM (inactive), the GI50 (NCI-H522) was > 100 µM (inactive) and the GI50 (PC-3) was > 100 µM (inactive). The GI50 (UO-31) was > 100 µM (inactive), the GI50 (HOP-92) was > 100 µM (inactive) and the GI50 (786-0) was > 100 µM (inactive). For the same compound, the GI50 (IGROV-1) was > 100 µM (inactive), the GI50 (HT-29) was > 100 µM (inactive) and the GI50 (M14) was > 100 µM (inactive). The GI50 (LOX IMVI) was > 100 µM (inactive), the GI50 (RXF 393) was > 100 µM (inactive) and the GI50 (HOP-62) was > 100 µM (inactive). The GI50 (KM12) was > 100 µM (inactive), the GI50 (MOLT-4) was > 100 µM (inactive) and the GI50 (SF-268) was > 100 µM (inactive). The GI50 (DU-145) was > 100 µM (inactive), the GI50 (SN12C) was > 100 µM (inactive) and the GI50 (OVCAR-4) was > 100 µM (inactive). The GI50 (Hs-578T) was > 100 µM (inactive), the GI50 (U-251) was > 100 µM (inactive) and the GI50 (T47D) was > 100 µM (inactive). The GI50 (A549) was > 100 µM (inactive), the GI50 (HCT-116) was > 100 µM (inactive) and the GI50 (MCF7) was > 100 µM (inactive). The GI50 (K562) was > 100 µM (inactive), the GI50 (SK-MEL-5) was > 100 µM (inactive) and the GI50 (RPMI-8226) was > 100 µM (inactive). The GI50 (SF-295) was > 100 µM (inactive), the GI50 (UACC-257) was > 100 µM (inactive) and the GI50 (SK-MEL-2) was > 100 µM (inactive). The GI50 (OVCAR-8) was > 100 µM (inactive), the GI50 (SNB-19) was > 100 µM (inactive) and the GI50 (SW-620) was > 100 µM (inactive). For the same compound, the GI50 (EKVX) was > 100 µM (inactive), the GI50 (UACC-62) was > 100 µM (inactive) and the GI50 (OVCAR-5) was > 100 µM (inactive). For the same compound, the GI50 (CAKI-1) was > 100 µM (inactive), the GI50 (SK-OV-3) was > 100 µM (inactive) and the GI50 (MDA-MB-231) was > 100 µM (inactive). For the same compound, the GI50 (Malme-3M) was > 100 µM (inactive), the GI50 (ACHN) was > 100 µM (inactive) and the GI50 (OVCAR-3) was > 100 µM (inactive). For the same compound, the GI50 (SF-539) was > 100 µM (inactive), the GI50 (NCI-H460) was > 100 µM (inactive) and the GI50 (SK-MEL-28) was > 100 µM (inactive). The GI50 (TK-10) was > 100 µM (inactive), the GI50 (COLO 205) was > 100 µM (inactive) and the GI50 (CCRF-CEM) was > 100 µM (inactive). The GI50 (HCT-15) was greater than 100 µM, the GI50 (A498) was > 100 µM (inactive) and the GI50 (SR) was 38 µM (inactive) and 60.4 µM (inactive). The GI50 (MDA-N) was > 100 µM (inactive), the GI50 (BT-549) was > 100 µM (inactive) and the GI50 (HL-60) was > 100 µM (inactive). For the same compound, the GI50 (NCI/ADR-RES) was > 100 µM (inactive) and the GI50 (SNB-75) was > 100 µM (inactive).
